For test [1], the system named is 5-HT6 receptor expressed in CHO cells. The test is described as follows: 5-HT6 receptor functional activity assay (cellular cAMP levels, CHO cells). The test is classed as cell-based, human, rat, or mouse. To be noted: concentration up to 10 micromolar; cAMP accumulation; species not specified. As for the experimental part:
5-HT6 Receptor Functional Activity Assay.
The functional activation of human, rat, or mouse 5-HT6 receptor expressed in CHO cells was determined by measuring cellular cAMP levels following the exposure of the cells to a compound using the SPA cAMP Screening System (Catalog No. RPA556, GE Healthcare) in 96-well OptiPlates (Catalog No. 6005190, PerkinElmer, Boston, Mass.). Cells expressing recombinant receptors were harvested and then re-suspended at approximately 2.0×10^6 cells/ml in assay medium containing Earle's Balanced Salt Solution (EBSS, pH 7.4) supplemented with 25 mM Hepes, 5 mM MgCl2 and 0.05% BSA. Cells (50 μl, ˜10^5 cells) were transferred to wells, to give a final volume of 100 μl containing various concentrations of compounds. The plate was incubated at 37° C. for 30 min and the reaction was terminated by boiling for 3 min. The accumulation of cAMP in 15 μl lysate was measured according to manufacture's instructions.

For a further test, the target named is T1, Human 5-HT6 (Homo sapiens, UniProt P50406).
T1 construct: expressed in transfected cells
T1 sequence (P50406 whole entry): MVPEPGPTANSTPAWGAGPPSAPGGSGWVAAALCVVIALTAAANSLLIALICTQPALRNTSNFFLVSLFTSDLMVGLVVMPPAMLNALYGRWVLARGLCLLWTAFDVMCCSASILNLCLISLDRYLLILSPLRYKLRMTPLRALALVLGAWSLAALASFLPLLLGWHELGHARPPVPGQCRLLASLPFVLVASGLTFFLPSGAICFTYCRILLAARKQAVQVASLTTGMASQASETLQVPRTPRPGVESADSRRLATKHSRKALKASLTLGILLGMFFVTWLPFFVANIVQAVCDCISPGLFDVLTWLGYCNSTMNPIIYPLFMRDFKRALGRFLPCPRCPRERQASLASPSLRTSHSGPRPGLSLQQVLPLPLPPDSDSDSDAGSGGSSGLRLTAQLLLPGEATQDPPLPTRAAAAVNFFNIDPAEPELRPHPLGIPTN
The test is described as follows: 5-HT6 receptor binding assay ([3H]5-HT displacement, SPA), human receptor. As for the experimental part: (§1) 5-HT6 Receptor Binding Assay
(§2) Affinity (IC50) of a compound for cloned human, rat, or mouse 5-HT6 receptor was measured by its ability to displace [^3H]5-HT using cell membranes prepared from cultured cells and scintillation proximity assay (SPA) beads that bind to cell membranes (Catalog No. RPNQ0001; GE Healthcare Life Sciences, Piscataway, N.J.). Assays were carried out in 200 μl binding buffer (50 mM Tris-HCl, pH 7.4, 5 mM MgCl2, 0.5 mM EDTA, 10 μM pargyline and 0.1% ascorbic acid) in 96-well plates. Cell membranes were re-suspended in binding buffer to final concentration of up to 0.2 mg protein/ml and mixed with reconstituted SPA beads to a final concentration of 0.25 mg/ml. To each well, […] of above mixture, 50 of cold compound (to 10^−10 to 10^−5 M final concentration) and 50 μl of [^3H]5-HT radioligand (specific activity, 100 Ci/mmol, GE Healthcare Life Sciences; final concentration, 5 nM) were added. Following 1 h incubation at room temperature, the radioactivity bound to the cell membranes was measured on a scintillation counter.

The next test deals with T2, Mouse 5-HT6 (Mus musculus, UniProt Q9R1C8).
T2 construct: expressed in transfected cells
T2 sequence (Q9R1C8 whole entry): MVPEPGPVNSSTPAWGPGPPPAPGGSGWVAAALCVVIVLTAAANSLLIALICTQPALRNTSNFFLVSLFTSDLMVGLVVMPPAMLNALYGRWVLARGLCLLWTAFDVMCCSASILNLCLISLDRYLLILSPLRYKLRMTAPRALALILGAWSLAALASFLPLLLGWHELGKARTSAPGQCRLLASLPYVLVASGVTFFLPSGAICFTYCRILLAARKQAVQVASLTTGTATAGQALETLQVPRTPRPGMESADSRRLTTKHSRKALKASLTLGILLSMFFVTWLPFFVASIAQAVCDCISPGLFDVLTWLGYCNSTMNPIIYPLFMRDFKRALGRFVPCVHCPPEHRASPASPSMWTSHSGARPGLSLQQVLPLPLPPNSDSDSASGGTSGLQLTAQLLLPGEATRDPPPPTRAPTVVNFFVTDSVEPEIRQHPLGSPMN
In words: 5-HT6 receptor binding assay ([3H]5-HT displacement, SPA), mouse receptor. As for the experimental part: as §1, §2

Setting [2] is: cloned human 5-HT6 receptor, cell membranes, [3H]5-HT 5 nM, read-out: Human 5-HT6 binding IC50.
The mark [3] stands for this setting: cloned mouse 5-HT6 receptor, cell membranes, [3H]5-HT 5 nM, read-out: Mouse 5-HT6 binding IC50.

Read-outs that look alike come from different tables or passages of the source.

Consider `Cl.O=S(=O)(c1ccccc1)n1cc(CCNCc2cccc(OCC(F)(F)C(F)F)c2)c2ccc(F)cc21` [Example 1], for which, in test [1], the “functional activation of 5-HT6 receptor (detectable activity)” value is “did not show detectable activity”. The IC50 stood at 0.2 nM at Human 5-HT6 (setting [2]) and 2 nM on Mouse 5-HT6 (setting [3]).
As for `O=S(=O)(c1ccc(OC(F)(F)F)cc1)n1cc(CCNCc2cccc(OCC(F)(F)C(F)F)c2)c2ccc(F)cc21` [Example 2], the results for the IC50 on Human 5-HT6 and at Mouse 5-HT6 were 46.4 nM and 211 nM, respectively.
As to `COc1cccc(S(=O)(=O)n2cc(CCNCc3cccc(OCC(F)(F)C(F)F)c3)c3ccc(F)cc32)c1` [Example 3], the values for the IC50 on Human 5-HT6 (setting [2]) and at Mouse 5-HT6 (setting [3]) were 0.593 nM and 170 nM, respectively.
On to `O=S(=O)(c1cccc(Cl)c1)n1cc(CCNCc2cccc(OCC(F)(F)C(F)F)c2)c2ccc(F)cc21` [Example 4], for which the results for the IC50 at Human 5-HT6 (setting [2]) and on Mouse 5-HT6 (setting [3]) were 0.805 nM and 60.2 nM, respectively.
For `O=S(=O)(c1cc(Cl)cc(Cl)c1)n1cc(CCNCc2cccc(OCC(F)(F)C(F)F)c2)c2ccc(F)cc21` [Example 5], in that order: 2.88 nM and 148 nM.
On to `O=S(=O)(c1ccc(F)cc1)n1cc(CCNCc2cccc(OCC(F)(F)C(F)F)c2)c2ccc(F)cc21` [Example 6], for which the IC50 on Human 5-HT6 was 2.88 nM; at Mouse 5-HT6, 21.6 nM.
In the case of `O=S(=O)(c1ccc(Cl)cc1)n1cc(CCNCc2cccc(OCC(F)(F)C(F)F)c2)c2ccc(F)cc21` [Example 7], the IC50 came out at 3.4 nM on Human 5-HT6 (setting [2]) and 7.27 nM at Mouse 5-HT6 (setting [3]).
`O=S(=O)(c1ccc(Br)cc1)n1cc(CCNCc2cccc(OCC(F)(F)C(F)F)c2)c2ccc(F)cc21` [Example 8]: the 50% inhibitory concentration (IC50) on Human 5-HT6 (setting [2]) worked out at 2.05 nM; on Mouse 5-HT6 (setting [3]), 15.4 nM.
Take `O=S(=O)(c1ccc(F)c(Cl)c1)n1cc(CCNCc2cccc(OCC(F)(F)C(F)F)c2)c2ccc(F)cc21` [Example 9]: the IC50 stood at 8.85 nM on Human 5-HT6 (setting [2]) and 127 nM at Mouse 5-HT6 (setting [3]).
Regarding `O=S(=O)(c1cccc(C(F)(F)F)c1)n1cc(CCNCc2cccc(OCC(F)(F)C(F)F)c2)c2ccc(F)cc21` [Example 10], the IC50 on Human 5-HT6 (setting [2]) was found to be 0.626 nM; at Mouse 5-HT6 (setting [3]), 60 nM.
Consider `O=S(=O)(c1cccc(F)c1)n1cc(CCNCc2cccc(OCC(F)(F)C(F)F)c2)c2ccc(F)cc21` [Example 11], for which the IC50 on Human 5-HT6 (setting [2]) amounted to 0.371 nM; on Mouse 5-HT6 (setting [3]) it was 17.6 nM.
In the case of `CS(=O)(=O)n1cc(CCNCc2cccc(OCC(F)(F)C(F)F)c2)c2ccc(F)cc21` [Example 12], the IC50 came to 1.61 nM at Human 5-HT6 and 9.51 nM on Mouse 5-HT6.
The matching figures for `CCS(=O)(=O)n1cc(CCNCc2cccc(OCC(F)(F)C(F)F)c2)c2ccc(F)cc21` [Example 13]: 2.62 nM and 11.7 nM.
Take `CC(C)S(=O)(=O)n1cc(CCNCc2cccc(OCC(F)(F)C(F)F)c2)c2ccc(F)cc21` [Example 14]: the half-maximal inhibitory concentration (IC50) at Human 5-HT6 (setting [2]) turned out to be 20 nM; on Mouse 5-HT6 (setting [3]), 57.1 nM.
For `COc1ccc(S(=O)(=O)n2cc(CCNCc3cccc(OCC(F)(F)C(F)F)c3)c3ccc(F)cc32)cc1` [Example 15], in that order: 10.2 nM and 187 nM.
